Measurements published in patent publication US20060079510A1, “Use of PARP-1 inhibitors for protecting tumorcidal lymphocytes from apoptosis” (priority 2004, published 2006).
“Also recorded” adds a separate entry of the source.

Key:
[1] = tested on: peripheral blood lymphocytes; test: Oxidant-induced cell death in lymphocytes incubated with mononuclear phagocytes or hydrogen peroxide, flow cytometry; type: cell-based, human
Description: Peripheral venous blood was obtained as freshly prepared leukopacks from healthy blood donors at the Blood Centre, Sahlgren's Hospital, Göteborg, Sweden, to study the activation characteristics of cytotoxic lymphocytes in the presence and absence of MO, and ROM inhibitors. The blood (65 ml) was mixed with 92.5 ml Iscove's medium, 35 ml 6% Dextran (Kabi Pharmacia, Stockholm, Sweden) and 7.5 ml acid citrate dextrose (ACD) (Baxter, Deerfield, Ill.). After incubation for 15 minutes at room temperature, the supernatant was carefully layered onto Ficoll-Hypaque (Lymphoprep, Myegaard, Norway). Mononuclear cells (MNC) were collected at the interface after centrifugation at 380 g for 15 minutes at room temperature, washed twice in PBS and resuspended in Iscove's medium supplemented with 10% human AB^+ serum. During all further separation of cells, the cell suspensions were kept in siliconized test tubes (Vacuette, Greiner, Stockholm).
The MNC were further separated into lymphocyte and monocyte (MO) populations using the counter-current centrifugal elutriation (CCE) technique originally described by Yasaka and co-workers (Yasaka, T. et al., J. Immunol., 127:1515) with modifications as described in Hansson, M., et al. (J. Immunol., 156: 42 (1996); hereby incorporated by reference). Briefly, the sedimentation rate of cells in a spinning rotor was balanced by a counter-directed flow through the chamber. By slowly increasing the flow rate, fractions of cells of well-defined sizes were collected. The MNC were resuspended in elutration buffer containing 0.5% BSA (ICN Biomedicals Inc., Aurora, Ohio) and 0.1% EDTA (VWR, Göteborg, Sweden) in buffered NaCl and fed into a Beckman J2-21 ultracentrifuge with a JE-6B rotor (Bechman Coulter Inc., Fullerton, Calif.) at 2100 rpm. A fraction with >90% MO was obtained at a flow rate of 19 ml/min. A lymphocyte fraction enriched for NK-cells (CD3^−/56^+ phenotype) and T-cells (CD3^+/56^−) was recovered at flow rates of 14-15 ml/min. This fraction contained <3% MO and consisted of CD3ε^−/56^+ NK-cells (45-50%), CD3ε^+/56^− T-cells (35-40%), CD3ε^−/56^− cells (5-10%), and CD3ε^+/56^+ cells (1-5%), as judged by flow cytometry. In some experiments, dynabeads (Dynal A/S, Oslo, Norway) coated with anti-CD56 were used to obtain purified lymphocyte preparations of T-cells, as described in detail by Hansson, M., et al., incorporated above.
Briefly, lymphocytes were incubated overnight with autologous mononuclear phagocytes in the presence or absence of catalase (200 U/ml), histamine ([…]) or DPI (3 μM).
Briefly, lymphocytes, pretreated with PJ34 (250 ηM), Z-VAD.fmk (100 μM) or medium, were subjected to mononuclear phagocytes at different Mo/Ly ratios (FIG. 5A) or to different concentrations of H2O2 (FIG. 5C). FIGS. 5A-5D illustrate that PJ34 protected lymphocytes from cell death induced by phagocytes ([…], ratio 1:1, p<0.05) and hydrogen peroxide (FIGS. 5C and 5D, 250 μM, p<0.001).

[2] = tested on: NK cells; conditions: cited from earlier work
[3] = tested on: NK cells; conditions: histamine and IL-2; cited from earlier work
[4] = tested on: herpes simplex virus (HSV); conditions: cited from earlier work
[5] = tested on: melanoma cell lines; conditions: histamine and IL-2 given prior to inoculation; cited from earlier work
[6] = tested on: lymphocytes; test: Altered mitochondrial transmembrane potential (Mitochondrial Membrane Sensor Kit) and To-Pro-3 staining; type: cell-based, human; conditions: H2O2 250 μM or mononuclear phagocytes; PJ34 250 μM as printed
Description: A Mitochondrial Membrane Sensor Kit (BD Clontech) was used to identify cells with altered mitochondrial transmembrane potential according to the manufacturer's protocol.
Briefly, lymphocytes exposed to hydrogen peroxide (250 μM) were assayed for altered mitochondrial transmembrane potential and plasma membrane integrity at various time points. Depolarization of the Ψm is seen as an increase in green fluorescence (mitosensor monomers).

[7] = tested on: human lymphocytes; test: Large-scale DNA fragmentation, pulsed-field gel electrophoresis; type: cell-based; conditions: cells treated with Z-VAD.fmk and 250 μM H2O2, 16 hours
Description: Translocation of AIF to the nucleus has been associated with large-scale DNA fragmentation. The observed accumulation of nuclear AIF after challenge with H2O2 led to investigation as to whether large-scale DNA fragmentation accompanied lymphocyte cell death. To that end, lymphocytes were exposed to H2O2, cast into agarose plugs and analyzed using pulsed-field gel electrophoresis. Briefly, human lymphocytes were exposed to 250 μM H2O2 and incubated overnight at 37° C. After 16 hours, the cells were washed twice with PBS and resuspended in PBS. Cells were mixed with an equal volume of 2% low melting point agarose and cast into agarose plugs. After solidifying, plugs were incubated overnight at 56° C. in a buffer containing 0.2% Sodium deoxycholate and 0.5% N-lauroyl sarcosine supplemented with 0.5 mg/ml proteinase K.

Q: Which results are given for `NCCc1c[nH]cn1` [histamine]?
A: protection of lymphocytes from phagocyte-induced cell death (FIG. 1) ([1]; overnight with autologous mononuclear phagocytes, catalase 200 U/ml, histamine, DPI 3 μM, p<0.001, n=4): fully protected; monocyte mediated NK cell suppression ([2]; histamine and IL-2): complete or nearly complete abrogation; NK cell cytotoxicity ([2]; histamine and IL-2 in the presence of monocytes, relative to IL-2 only): elevated levels of cytotoxicity; effect on NK mediated cytotoxicity ([2]; in the absence of monocytes): no effect or weakly suppressed; granulocyte mediated NK cell suppression [3]: only partially removed; survival time, combination ([4]; combination of histamine and IL-2): synergistic effect; survival time ([4]; single dose of histamine): prolong survival time; development of lung metastatic foci [5]: protected

Q: For Z-VAD.fmk, which “protection of lymphocytes from phagocyte- or hydrogen peroxide-induced (oxidant/ROS-induced) cell death / apoptosis” value ([1]; pretreatment, PJ34 250 nM, DPQ 3 μM, Z-VAD.fmk 100 μM, overnight incubation with phagocytes or H2O2) is on record?
A: only partially protected; also recorded: failed to protect

Q: What about the “protection from oxidant-induced alterations of Ψm (FIG. 4)” value [6] of the same compound?
A: failed to display any significant protective effect

Q: And the “DNA fragments on pulsed-field gel (FIG. 7)” value [7]?
A: distinct band (approx. 50 kb)
